Source: US6048529A, “PVA or PEG conjugates of peptides for epitope-specific immunosuppression” (priority 1995, dated 2000)
“Also recorded” adds a separate entry of the source. Where a SMILES comes first, the peptide text is derived from it. Bridges are numbered along the chain shown (N, C = ends). Where no end group is shown, it is not given here.

What was measured:
[1] = tested on: experimental autoimmune myasthenia gravis (EAMG); experiment: Electrophysiological EAMG: EMG during repetitive nerve stimulation after immunization with Torpedo AChR; assay type: in vivo, C57/BL6 mice; settings: for proportion of mice showing a decremental response greater than 10%: 5 μg i.p. at 11, 7 and 3 days before immunization with Torpedo AChR, EMG on days 38-39
Method: Six weeks old C57/BL6 mice were purchased from Charles River Breeding Laboratories (Wilmington, Mass.). Preimmune sera were obtained from the mice for use as controls in subsequent antibody binding assays. […] Then, on day 0, the mice were immunized subcutaneously in one hind footpad and intramuscularly in the same side shoulder with 20 μg of Torpedo AChR in 100 μl emulsion containing equal volumes of complete Freund's adjuvant and PBS. Thirty days later, the mice were immunized with a similar dose of the receptor in the opposite footpad and shoulder. On the 37th day, test bleeds were obtained from the mice for determination of the antibody titers. Electrophysiological studies were performed on the 38th and 39th days. Finally, the mice were sacrificed on the 40th day and lymph node cells were obtained for Electrophysiological Studies To document the electrophysiological evidence of EAMG, amplitudes of serial muscle action potentials were measured by electromyography (EMG) during the repetitive stimulation of the nerve in immunized mice, using the Mystro EMG system (TECA Corporation). A pair of wire electrodes were surgically implanted, encircling the sciatic nerve, two days before EMG. The nerve was stimulated through the implanted electrodes by 3 Hz trains of supramaximal electric current with a duration of 200 microseconds. The corresponding muscle action potentials were recorded with an electrode subcutaneously inserted over the gastrocnemius muscle. A reference electrode was placed at the ankle. Ether inhalation was used during the surgical and recording procedures. […] Students' t-test was used to analyze the differences of amplitude changes between the two groups. A typical myasthenic response of a greater than 10% decrement was considered to constitute an electrophysiological evidence of EAMG. The frequency of electrophysiological EAMG was calculated in each group and analyzed by chi-square test.

peptide α125-148 = experiment: Radioimmunoassay of anti-AChR antisera: antibody binding to peptide α125-148; assay type: in vivo, C57/BL6 mice; settings: for binding to peptide α125-148 of antibodies in pooled antisera at serial dilutions (in words): pooled antisera of each group, compared with the other groups
Method: (§1) Six weeks old C57/BL6 mice were purchased from Charles River Breeding Laboratories (Wilmington, Mass.). Preimmune sera were obtained from the mice for use as controls in subsequent antibody binding assays. After 2-weeks rest, the mice were divided into three groups which received, at eleven, seven and three days before immunization with AChR, an intraperitoneal injection (5 μg in 25 μl of PBS) of either the mPEG-(α125-148) conjugate (Group 1), mPEG-nonsense peptide conjugate (Group 2) or unaltered free peptide α125-148 (Group 3) (FIG. 5). Then, on day 0, the mice were immunized subcutaneously in one hind footpad and intramuscularly in the same side shoulder with 20 μg of Torpedo AChR in 100 μl emulsion containing equal volumes of complete Freund's adjuvant and PBS. Thirty days later, the mice were immunized with a similar dose of the receptor in the opposite footpad and shoulder. On the 37th day, test bleeds were obtained from the mice for determination of the antibody titers. Electrophysiological studies were performed on the 38th and 39th days. Finally, the mice were sacrificed on the 40th day and lymph node cells were obtained for
One mg of the synthetic peptide was dissolved in 50 μl dimethylformamide and then diluted with PBS to 25 μg/ml. A solution of Torpedo AChR in PBS was prepared to contain 2.5 μg/ml. Aliquots (50 μl/well) of the peptide or AChR solutions were added to a 96-well microtiter plate (Falcon Micro Test III flexible assay plate, Becton Dickinson, Oxcard, Calif.) and the plates were incubated at room temperature overnight. After washing 3 times with PBS, the plates were blocked with 0.25% bovine serum albumin (BSA) in PBS (50 μl/well) at 37° C. for 90 minutes. The plates were washed again 5 times with PBS and to each well was added 50 μl of the serum from AChR-immunized mice, pre-diluted with PBS containing 0.10% BSA, and the plates were covered and allowed to stand at room temperature overnight. After 5 washes with PBS, 50 μl of rabbit IgG antibodies (2.5 μg/ml) against mouse IgG and IgM (Accurate Chemical Scientific Corporation, Westbury, N.Y.) was added to each well and the plates were incubated at 37° C. for 3 hours. The plates were then washed 5 times with PBS and ^125 I-labeled protein A (2×10^5 cpm in 50 μl of PBS-0.1% BSA) was added to each well. The plates were incubated for 3 hours at room temperature, after which they were washed and the wells were cut out and counted for bound radioactivity. Pre-immune serum samples, obtained from the mice prior to any experimental treatments, were used as controls to correct for non-specific binding.

whole Torpedo AChR = experiment: Radioimmunoassay of anti-AChR antisera: antibody binding to whole AChR; assay type: in vivo, C57/BL6 mice; settings: anti-AChR antisera of pretreated mice, versus control groups
Method: as §1, with “Finally, the mice were sacrificed on the 40th day and lymph node cells were obtained for” left out
(§2) One mg of the synthetic peptide was dissolved in 50 μl dimethylformamide and then diluted with PBS to 25 μg/ml. […] The plates were incubated for 3 hours at room temperature, after which they were washed and the wells were cut out and counted for bound radioactivity. […]

peptide α45-60 = experiment: Radioimmunoassay of anti-AChR antisera: antibody binding to peptide α45-60; assay type: in vivo, C57/BL6 mice; settings: anti-AChR antisera of pretreated mice, versus control groups
Method: as §1, with “Finally, the mice were sacrificed on the 40th day and lymph node cells were obtained for” left out
as §2

peptide α182-198 = experiment: Radioimmunoassay of anti-AChR antisera: antibody binding to peptide α182-198; assay type: in vivo, C57/BL6 mice; settings: anti-AChR antisera of pretreated mice, versus control groups
Method: as §1, with “Finally, the mice were sacrificed on the 40th day and lymph node cells were obtained for” left out
as §2

lymph node cells (LNC) = experiment: T cell proliferation assay of lymph node cells from pretreated, AChR-primed mice; assay type: in vivo, C57/BL6 mice; settings: LNC 5×10^5 cells/well from pretreated mice after AChR immunization
Method: as §1, with “Thirty days later, the mice were immunized with a similar dose of the receptor in the opposite footpad and shoulder. On the 37th day, test bleeds were obtained from the mice for determination of the antibody titers. Electrophysiological studies were performed on the 38th and 39th days. Finally, the mice were sacrificed on the 40th day and lymph node cells were obtained for” left out
Lymph node cells (LNC) were harvested from the AChR-primed mice of each group ten or eleven days after the last AChR immunization. […] The number of viable cells was determined by vital staining with fluorescein diacetage (Rotman and Papermasters, 1966). […] After incubation for 3 days at 37° C. in a humidified air/CO2 (19:1) atmosphere, the cultures were pulsed (18 hr) with 1 μCi/well [^3 H]-thymidine (Research Products International, Mount Prospect, Ill,) and then harvested on to glass microfiber filters (Whatman, Clinton, N.J.) for counting of radioactivity by liquid scintillation.

[2] = in vivo; cited from earlier work
[3] = anti-AChR antisera of pretreated mice

## CC[N+](C)(C)c1cccc(O)c1 [edrophonium chloride, reference compound]
[1]; EAMG-positive mouse with -33% decrement, 3 minutes after i.p. injection of 250 μg, 3 Hz stimulation
  decremental amplitude after edrophonium chloride: -13%
[1]; i.p. injection of 250 μg
  effect on the typical myasthenic decremental response (in words): reversible

## CC[C@H](C)[C@H](NC(=O)CNC(=O)[C@H](CC(C)C)NC(=O)[C@H](CCCCN)NC(=O)[C@H](CCSC)NC(=O)[C@@H](NC(=O)[C@@H]1CSSC[C@H](NC(=O)[C@H](Cc2ccc(O)cc2)NC(=O)[C@H](CO)NC(=O)[C@@H](N)CCCCN)C(=O)N[C@@H](CCC(=O)O)C(=O)N[C@@H]([C@@H](C)CC)C(=O)N[C@@H]([C@@H](C)CC)C(=O)N[C@@H](C(C)C)C(=O)N[C@@H]([C@@H](C)O)C(=O)N[C@@H](Cc2c[nH]cn2)C(=O)N[C@@H](Cc2ccccc2)C(=O)N2CCC[C@H]2C(=O)N[C@@H](Cc2ccccc2)C(=O)N[C@@H](CC(=O)O)C(=O)N[C@@H](CCC(N)=O)C(=O)N[C@@H](CCC(N)=O)C(=O)N[C@@H](CC(N)=O)C(=O)N1)[C@@H](C)O)C(=O)O [free α125-148, reference compound] (H-KSYCEIIVTHFPFDQQNCTMKLGI-OH; disulfide 4-18)
[1]
  proportion of mice showing a decremental response greater than 10%: 56%
Peptide α125-148; [3]
  antibody response against peptide α125-148 (in words): no decrease
Peptide α125-148
  binding to peptide α125-148 of antibodies in pooled antisera at serial dilutions (in words): consistently greater than the other two controls

## mPEG-(α125-148): monomethoxypolyethylene glycol (MW 5000) succinate coupled to the N-terminal α-NH2 of Torpedo californica AChR peptide α125-148 ({mPEG 5000 succinate}-KSYCEIIVTHFPFDQQNCTMKLGI; disulfide 4-18 (inferred); UniProt P02710 149-172, looked up, fragment)
[1]
  proportion of mice showing a decremental response greater than 10%: 20%
[1]; injection before immunization with whole Torpedo AChR
  effect on development of electrophysiological EAMG (in words): suppresses development of electrophysiological EAMG but the suppression was incomplete; also recorded: suppressed the development of electrophysiological EAMG; also recorded: suppressed the development of experimental autoimmune myasthenia gravis (EAMG)
Peptide α125-148; [3]
  antibody response against peptide α125-148 (in words): significantly decreased; also recorded: specific decrease
Peptide α125-148; anti-AChR antisera of pretreated mice, test bleed day 37
  antibody binding to peptide α125-148, mean net cpm±standard deviation: 1414 ±1801 cpm
Peptide α125-148
  binding to peptide α125-148 of antibodies in pooled antisera at serial dilutions (in words): considerably lower antibody binding; also recorded: consistently lower
Whole Torpedo AChR
  antibody response against whole AChR (in words): no significant suppression; also recorded: not significantly different; also recorded: not altered
Peptide α45-60
  antibody response against peptide α45-60 (in words): no significant suppression; also recorded: not significantly different
Peptide α182-198
  antibody response against peptide α182-198 (in words): no significant suppression; also recorded: not significantly different
Lymph node cells (LNC)
  T cell proliferative responses to peptide α125-148, AChR α-chain peptides or whole AChR (in words): did not show meaningful differences; also recorded: not detected; also recorded: no detectable changes

## monomethoxypolyethylene glycol [mPEG]
[2]
  harmful or toxic effects in humans (in words): does not seem to have any harmful or toxic effects
